# According to ChEMBL document CHEMBL5620413, “Novel pterostilbene derivatives ameliorate heart failure by reducing oxidative stress and inflammation through regulating Nrf2/NF-κB signaling pathway” (Eur J Med Chem, 2023):
# Activity calls are given as the source filed them. The rule behind the calls is not given here.
# System: RAW264.7
# Experiment: Antiinflammatory activity in mouse RAW264.7 cells assessed as decrease in LPS-induced NO production at 10 uM preincubated for 1 hr followed by LPS treatment for 24 hrs by Griess reagent based assay
# Type: functional, cell-based
# Conditions: time 25.0 hrs
row,SMILES,Activity
1,C=CCOc1ccc(/C=C/c2cc(OC)cc(OC)c2/C=C/C(=O)c2cccc(Br)c2)cc1,Active
2,CCCCOc1ccc(/C=C/c2cc(OC)cc(OC)c2/C=C/C(=O)c2cccc(C)c2)cc1,Active
3,C=CCOc1ccc(/C=C/c2cc(OC)cc(OC)c2/C=C/C(=O)c2cccc(OC)c2)cc1,Active
4,COc1cc(/C=C/c2ccc(OCCOc3ccccc3)cc2)c(C2CC(C)=NN2C(C)=O)c(OC)c1 (stereo not drawn),Active
5,COCCOc1ccc(/C=C/c2cc(OC)cc(OC)c2/C=C/C(=O)c2cccc(OC)c2)cc1,Active
6,C=CCOc1ccc(/C=C/c2cc(OC)cc(OC)c2/C=C/C(=O)c2ccccc2)cc1,Active
7,CCCOc1ccc(/C=C/c2cc(OC)cc(OC)c2/C=C/C(=O)c2cccc(C)c2)cc1,Active
8,COc1cc(/C=C/c2ccc(OCc3ccc(F)cc3)cc2)c(/C=C/C(=O)c2cccc(C)c2)c(OC)c1,Active
9,COCCOc1ccc(/C=C/c2cc(OC)cc(OC)c2/C=C/C(=O)c2ccccc2)cc1,Active
10,COCCCCOc1ccc(/C=C/c2cc(OC)cc(OC)c2C2CC(C)=NN2C(C)=O)cc1 (stereo not drawn),Active
11,C=CCOc1ccc(/C=C/c2cc(OC)cc(OC)c2C2CC(C)=NN2C(C)=O)cc1 (stereo not drawn),Active
12,COCCCCOc1ccc(/C=C/c2cc(OC)cc(OC)c2/C=C/C(=O)c2cccc(C)c2)cc1,Active
13,CCCOc1ccc(/C=C/c2cc(OC)cc(OC)c2C2CC(C)=NN2C(C)=O)cc1 (stereo not drawn),Active
14,COCCOc1ccc(/C=C/c2cc(OC)cc(OC)c2/C=C/C(=O)c2cccc(C)c2)cc1,Active
15,COc1cc(/C=C/c2ccc(OCC3CCCCC3)cc2)c(C2CC(C)=NN2C(C)=O)c(OC)c1 (stereo not drawn),Active
16,CCCCOc1ccc(/C=C/c2cc(OC)cc(OC)c2/C=C/C(=O)c2cccc(Br)c2)cc1,Active
17,C=CCOc1ccc(/C=C/c2cc(OC)cc(OC)c2/C=C/C(=O)c2cccc(C)c2)cc1,Active
18,CCC(C)Oc1ccc(/C=C/c2cc(OC)cc(OC)c2C2CC(C)=NN2C(C)=O)cc1 (stereo not drawn),Active
